Molecules are shown by their SMILES.

The text below walks through data of paper PMC4274890 (Emerging Microbes & Infections, 2014).

Assay [1] has as its system SH5190. The assay is classed as cell-based, A/Shanghai/5190/2013(H7N9).
Assay [2] relates to SH5190. The class given is cell-based, A/Shanghai/5190/2013(H7N9). The source holds these as a separate data set.

`CCC(CC)O[C@@H]1C=C(C(=O)O)C[C@H](N)[C@H]1NC(C)=O` [Oseltamivir carboxylate] returned a plaque mean diameter in the assay on SH5190 [1] of less than 0.1 mm.

Consider `CC(=O)Oc1ccccc1C(=O)Nc1ncc([N+](=O)[O-])s1` [NT-300, nitazoxanide], for which the “times more potent than T-705 and ribavirin” value in the assay on SH5190 [2] is “over 25 times”.
